Assay results published in ChEMBL document CHEMBL4732128, “Methylsulfanylpyridine based diheteroaryl isocombretastatin analogs as potent anti-proliferative agents” (Eur J Med Chem, 2021).
≈ marks a conversion by molar mass, not a printed value. Calls of active or inactive are those of the source. No cut-off for these calls is given here.

Key:
[1] = Aqueous solubility of the compound in pH 7.0 phosphate buffer at 2 mg incubated for 72 hrs by shake flask method; assay type: physicochemical
[2] = Inhibition of bovine brain tubulin polymerization incubated for 30 mins by turbidimetric assay; assay type: tissue-based, Bos taurus
HeLa [3] = assay: Antiproliferative activity against human HeLa cells assessed as inhibition of cell growth after 72 hrs by XTT assay; assay type: functional, cell-based
HL-60 [4] = assay: Antiproliferative activity against human HL-60 cells assessed as inhibition of cell growth after 72 hrs by XTT assay; assay type: functional, cell-based; details: HL-60, 72 h
HT-29 [5] = assay: Antiproliferative activity against human HT-29 cells assessed as inhibition of cell growth after 72 hrs by XTT assay; assay type: functional, cell-based; details: HT-29, 72 h
Tubulin (Homo sapiens) = Tubulin (Homo sapiens) (UniProt P68371+Q9H4B7+P0DPH7+P68366+Q13509+Q71U36+P04350+Q3ZCM7+P07437+P68363+Q9BQE3+Q6PEY2+Q13885+Q9BVA1+Q9BUF5); assay: Induction of microtubule disruption in human HeLa cells at 1 uM measured after 24 hrs by immunofluorescence staining based confocal microscopic analysis; assay type: cell-based
HL-60 [6] = assay: Induction of cell cycle arrest in human HL-60 cells assessed as accumulation of cells at Sub-G0/G1 phase at 1 nM after 24 to 72 hrs by propidium iodide staining-based flow cytometric analysis; assay type: functional; details: time 24-72 hrs
HL-60 [7] = assay: Induction of cell cycle arrest in human HL-60 cells assessed as accumulation of cells at G0/G1 phase at 1 nM after 24 to 72 hrs by propidium iodide staining-based flow cytometric analysis; assay type: functional; details: time 24-72 hrs
HL-60 [8] = assay: Induction of cell cycle arrest in human HL-60 cells assessed as accumulation of cells at S phase at 1 nM after 24 to 72 hrs by propidium iodide staining-based flow cytometric analysis; assay type: functional; details: time 24-72 hrs
HL-60 [9] = assay: Induction of cell cycle arrest in human HL-60 cells assessed as accumulation of cells at G2/M phase at 1 nM after 24 to 72 hrs by propidium iodide staining-based flow cytometric analysis; assay type: functional; details: time 24-72 hrs
HeLa [10] = assay: Induction of cell cycle arrest in human HeLa cells assessed as accumulation of cells at Sub-G0/G1 phase at 1 nM after 24 to 72 hrs by propidium iodide staining-based flow cytometric analysis; assay type: functional; details: time 24-72 hrs
HeLa [11] = assay: Induction of cell cycle arrest in human HeLa cells assessed as accumulation of cells at G0/G1 phase at 1 nM after 24 to 72 hrs by propidium iodide staining-based flow cytometric analysis; assay type: functional; details: time 24-72 hrs
HeLa [12] = assay: Induction of cell cycle arrest in human HeLa cells assessed as accumulation of cells at S phase at 1 nM after 24 to 72 hrs by propidium iodide staining-based flow cytometric analysis; assay type: functional; details: time 24-72 hrs
HeLa [13] = assay: Induction of cell cycle arrest in human HeLa cells assessed as accumulation of cells at G2/M phase at 1 nM after 24 to 72 hrs by propidium iodide staining-based flow cytometric analysis; assay type: functional; details: time 24-72 hrs
HT-29 [14] = assay: Induction of cell cycle arrest in human HT-29 cells assessed as accumulation of cells at Sub-G0/G1 phase at 1 nM after 24 to 72 hrs by propidium iodide staining-based flow cytometric analysis; assay type: functional; details: time 24-72 hrs
HT-29 [15] = assay: Induction of cell cycle arrest in human HT-29 cells assessed as accumulation of cells at G0/G1 phase at 1 nM after 24 to 72 hrs by propidium iodide staining-based flow cytometric analysis; assay type: functional; details: time 24-72 hrs
HT-29 [16] = assay: Induction of cell cycle arrest in human HT-29 cells assessed as accumulation of cells at S phase at 1 nM after 24 to 72 hrs by propidium iodide staining-based flow cytometric analysis; assay type: functional; details: time 24-72 hrs
HT-29 [17] = assay: Induction of cell cycle arrest in human HT-29 cells assessed as accumulation of cells at G2/M phase at 1 nM after 24 to 72 hrs by propidium iodide staining-based flow cytometric analysis; assay type: functional; details: time 24-72 hrs
HL-60 [18] = assay: Induction of cell cycle arrest in human HL-60 cells assessed as accumulation of cells at G2/M phase at 100 nM after 24 hrs by propidium iodide staining-based flow cytometric analysis; assay type: functional
HT-29 [19] = assay: Induction of cell cycle arrest in human HT-29 cells assessed as accumulation of cells at G2/M phase at 100 nM after 24 hrs by propidium iodide staining-based flow cytometric analysis; assay type: functional
HeLa [20] = assay: Induction of cell cycle arrest in human HeLa cells assessed as accumulation of cells at G2/M phase at 100 nM after 24 hrs by propidium iodide staining-based flow cytometric analysis; assay type: functional
HeLa [21] = assay: Induction of apoptosis in human HeLa cells assessed as increase in cell accumulation at sub-G0/G1 phase at 100 nM incubated for 24 hrs by propidium iodide staining based flow cytometry; assay type: functional
HL-60 [22] = assay: Induction of apoptosis in human HL-60 cells assessed as increase in cell accumulation at sub-G0/G1 phase at 100 nM incubated for 48 hrs by propidium iodide staining based flow cytometry; assay type: functional
HL-60 [23] = assay: Induction of apoptosis in human HL-60 cells assessed as increase in cell accumulation at sub-G0/G1 phase at 100 nM incubated for 72 hrs by propidium iodide staining based flow cytometry; assay type: functional
HeLa [24] = assay: Induction of apoptosis in human HeLa cells assessed as increase in cell accumulation at sub-G0/G1 phase at 100 nM incubated for 48 hrs by propidium iodide staining based flow cytometry; assay type: functional
HeLa [25] = assay: Induction of apoptosis in human HeLa cells assessed as increase in cell accumulation at sub-G0/G1 phase at 100 nM incubated for 72 hrs by propidium iodide staining based flow cytometry; assay type: functional
HT-29 [26] = assay: Induction of apoptosis in human HT-29 cells assessed as increase in cell accumulation at sub-G0/G1 phase at 100 nM incubated for 48 hrs by propidium iodide staining based flow cytometry; assay type: functional
HT-29 [27] = assay: Induction of apoptosis in human HT-29 cells assessed as increase in cell accumulation at sub-G0/G1 phase at 100 nM incubated for 72 hrs by propidium iodide staining based flow cytometry; assay type: functional
HL-60 [28] = assay: Induction of cell cycle arrest in human HL-60 cells assessed as accumulation of cells at G2/M phase at 100 nM after 48 hrs by propidium iodide staining-based flow cytometric analysis; assay type: functional
HL-60 [29] = assay: Induction of cell cycle arrest in human HL-60 cells assessed as accumulation of cells at G2/M phase at 100 nM after 72 hrs by propidium iodide staining-based flow cytometric analysis; assay type: functional
HeLa [30] = assay: Induction of cell cycle arrest in human HeLa cells assessed as accumulation of cells at G2/M phase at 100 nM after 48 hrs by propidium iodide staining-based flow cytometric analysis; assay type: functional
HeLa [31] = assay: Induction of cell cycle arrest in human HeLa cells assessed as accumulation of cells at G2/M phase at 100 nM after 72 hrs by propidium iodide staining-based flow cytometric analysis; assay type: functional
HT-29 [32] = assay: Induction of cell cycle arrest in human HT-29 cells assessed as accumulation of cells at G2/M phase at 100 nM after 48 hrs by propidium iodide staining-based flow cytometric analysis; assay type: functional
HT-29 [33] = assay: Induction of cell cycle arrest in human HT-29 cells assessed as accumulation of cells at G2/M phase at 100 nM after 72 hrs by propidium iodide staining-based flow cytometric analysis; assay type: functional
HT-29 [34] = assay: Induction of cell cycle arrest in human HT-29 cells assessed as sum of Sub-G0/G1 and G2/M population at 1 uM after 48 hrs by propidium iodide staining based flow cytometry; assay type: functional
HT-29 [35] = assay: Induction of cell cycle arrest in human HT-29 cells assessed as sum of Sub-G0/G1 and G2/M population at 10 uM after 48 hrs by propidium iodide staining based flow cytometry; assay type: functional
HT-29 [36] = assay: Induction of cell cycle arrest in human HT-29 cells assessed as sum of Sub-G0/G1 and G2/M population at 1 uM after 72 hrs by propidium iodide staining based flow cytometry; assay type: functional
HT-29 [37] = assay: Induction of cell cycle arrest in human HT-29 cells assessed as sum of Sub-G0/G1 and G2/M population at 10 uM after 72 hrs by propidium iodide staining based flow cytometry; assay type: functional
HEK293 [38] = assay: Induction of mitotic arrest in human HEK293 cells; assay type: cell-based
HEK293 [39] = assay: Induction of apoptosis in human HEK293 cells; assay type: cell-based
HeLa [40] = assay: Induction of mitotic arrest in human HeLa cells assessed as increase in MPM-2 expression at 1 uM incubated for 24 to 48 hrs by Western blot analysis; assay type: functional, cell-based; details: time 24-48 hrs
HeLa [41] = assay: Induction of apoptosis in human HeLa cells assessed as increase in cleaved PARP level at 1 uM after 24 to 48 hrs by Western blot analysis; assay type: functional, cell-based; details: time 24-48 hrs
HeLa [42] = assay: Induction of cell cycle arrest in human HeLa cells assessed as accumulation of cells at G2/M phase after 24 hrs by propidium iodide staining-based flow cytometric analysis; assay type: functional
HeLa [43] = assay: Induction of apoptosis in human HeLa cells assessed as accumulation of cells at sub-G0/G1 phase after 24 hrs by propidium iodide staining-based flow cytometric analysis; assay type: functional, cell-based
HT-29 [44] = assay: Induction of cell cycle arrest in human HT-29 cells assessed as accumulation of cells at G2/M phase after 24 hrs by propidium iodide staining-based flow cytometric analysis; assay type: functional

`CSc1cc(C(=NO)c2ccc3c(c2)c(C#N)cn3C)cc(Cl)n1` gave a solubility thermodynamic at 72 h [1] of 5.1 µg/mL (≈ 14.3 µM), an IC50 [2] of 200 nM and an IC50 (HeLa [3]) of 57 nM. The IC50 (HL-60 [4]) was 93 nM, the IC50 (HT-29 [5]) was 195 nM and the Activity (Tubulin (Homo sapiens)) was “Active”. The Activity (HL-60 [6]) was “inactive”, the Activity (HL-60 [7]) was “inactive” and the Activity (HL-60 [8]) was “inactive”. The Activity (HL-60 [9]) was “inactive”, the Activity (HeLa [10]) was “inactive” and the Activity (HeLa [11]) was “inactive”. The Activity (HeLa [12]) was “inactive”, the Activity (HeLa [13]) was “inactive” and the Activity (HT-29 [14]) was “inactive”. For the same compound, the Activity (HT-29 [15]) was “inactive”, the Activity (HT-29 [16]) was “inactive” and the Activity (HT-29 [17]) was “inactive”. For the same compound, the Activity (HL-60 [18]) was 77.4%, the Activity (HT-29 [19]) was 84.4% and the Activity (HeLa [20]) was 73.2%. The Activity (HeLa [21]) was 15.7%, the Activity (HL-60 [22]) was 22.7% and the Activity (HL-60 [23]) was 33.1%. For the same compound, the Activity (HeLa [24]) was 35.9%, the Activity (HeLa [25]) was 83.3% and the Activity (HT-29 [26]) was 28.1%. For the same compound, the Activity (HT-29 [27]) was 64.7%, the Activity (HL-60 [28]) was 39.7% and the Activity (HL-60 [29]) was 23.3%. For the same compound, the Activity (HeLa [30]) was 46.9%, the Activity (HeLa [31]) was 4.6% and the Activity (HT-29 [32]) was 54.9%. It also gave an Activity (HT-29 [33]) of 4.7%, an Activity (HT-29 [34]) of 91.1% and an Activity (HT-29 [35]) of 92.1%. For the same compound, the Activity (HT-29 [36]) was 39.1%, the Activity (HT-29 [37]) was 40.7% and the Activity (HEK293 [38]) was “Toxic”. For the same compound, the Activity (HEK293 [39]) was “Non-Toxic”, the Activity (HeLa [40]) was “Active” and the Activity (HeLa [41]) was “Active”. For the same compound, the Activity (HeLa [42]) was “Active”, the Activity (HeLa [43]) was “Active” and the Activity (HT-29 [44]) was “Active”.
